Reference: the supplement of paper PMC10307832

Tests used:
Test in all cases: relative viability (nuclei count vs DMSO), 5 days (fraction); higher = more cells survive
Shikonin + Navitoclax = compound: CC(C)=CC[C@@H](O)C1=CC(=O)c2c(O)ccc(O)c2C1=O [Shikonin] + CC1(C)CCC(c2ccc(Cl)cc2)=C(CN2CCN(c3ccc(C(=O)NS(=O)(=O)c4ccc(N[C@H](CCN5CCOCC5)CSc5ccccc5)c(S(=O)(=O)C(F)(F)F)c4)cc3)CC2)C1 [Navitoclax] (partner 0.5 µM)
Summary of the method: (§1)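 Five library-drug doses in √10 steps were combined with a fixed anchor-drug dose, or a single drug was given alone, by pin tool to lung cancer cell lines in 1536-well plates the day after seeding. Nuclei were stained and counted after 5 days. Relative viability is the nuclei count in treated wells over that in vehicle wells, taken as the median of duplicate plates.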

Shikonin + Dasatinib = compound: CC(C)=CC[C@@H](O)C1=CC(=O)c2c(O)ccc(O)c2C1=O [Shikonin] + Cc1nc(Nc2ncc(C(=O)Nc3c(C)cccc3Cl)s2)cc(N2CCN(CCO)CC2)n1 [Dasatinib] (partner 0.075 µM)
Summary of the method: as §1

[1] = compound: CC(C)N(CCCNC(=O)Nc1ccc(C(C)(C)C)cc1)C[C@H]1O[C@@H](n2ccc3c(N)ncnc32)[C@H](O)[C@@H]1O + Cc1cc(Nc2cc(N3CCN(C)CC3)nc(Sc3ccc(NC(=O)C4CC4)cc3)n2)n[nH]1 [Tozasertib] (partner 0.1 µM)
Summary of the method: as §1

[2] = compound: CC(C)N(CCCNC(=O)Nc1ccc(C(C)(C)C)cc1)C[C@H]1O[C@@H](n2ccc3c(N)ncnc32)[C@H](O)[C@@H]1O + Nc1nc2[nH]cc(CCc3ccc(C(=O)N[C@@H](CCC(=O)O)C(=O)O)cc3)c2c(=O)[nH]1 [Pemetrexed] (partner 0.2 µM)
Summary of the method: as §1

Cell Line | relative viability (Shikonin + Navitoclax; first compound 0.01 µM) | relative viability (Shikonin + Navitoclax; first compound 0.1 µM) | relative viability (Shikonin + Navitoclax; first compound 0.3162 µM) | relative viability (Shikonin + Navitoclax; first compound 1 µM) | relative viability (Shikonin + Dasatinib; first compound 0.01 µM) | relative viability (Shikonin + Dasatinib; first compound 0.1 µM) | relative viability (Shikonin + Dasatinib; first compound 0.3162 µM) | relative viability (Shikonin + Dasatinib; first compound 1 µM) | relative viability ([1]; first compound 0.08 µM) | relative viability ([1]; first compound 0.253 µM) | relative viability ([1]; first compound 0.8 µM) | relative viability ([1]; first compound 2.53 µM) | relative viability ([1]; first compound 8 µM) | relative viability ([2]; first compound 0.08 µM) | relative viability ([2]; first compound 0.253 µM) | relative viability ([2]; first compound 0.8 µM) | relative viability ([2]; first compound 2.53 µM) | relative viability ([2]; first compound 8 µM)
NCI-H322M | 1.23 | 1.21 | 1.32 | 1.27 | 0.237 | 0.271 | 0.261 | 0.27 | 0.484 | 0.434 | 0.493 | 0.499 | 0.499 | 0.634 | 0.609 | 0.617 | 0.593 | 0.631
NCI-H441 | 0.615 | 0.76 | 0.742 | 0.396 | 0.632 | 0.466 | 0.631 | 0.675 | 0.599 | 0.66 | – | 0.716 | 0.577 | 0.271 | 0.242 | – | 0.263 | 0.253
NCI-H460 | 1.16 | 1.49 | 1.25 | 1.19 | 0.509 | 0.762 | 0.556 | 0.605 | 0.402 | 0.435 | 0.346 | 0.488 | 0.453 | 0.0586 | 0.06 | 0.0609 | 0.0624 | 0.0643
NCI-H520 | – | 1.1 | 1.19 | 1 | 0.294 | 0.218 | 0.2 | 0.189 | 0.453 | 0.512 | – | 0.416 | 0.437 | 0.614 | 0.743 | 0.663 | 0.787 | 0.7
NCI-H596 | 0.936 | 0.911 | 0.968 | 0.907 | 0.585 | 0.59 | 0.566 | 0.641 | 0.905 | – | 0.744 | 0.97 | 0.897 | 0.515 | 0.465 | 0.514 | 0.53 | 0.493
NCI-H647 | 0.991 | 0.886 | 1.25 | 1.02 | 0.159 | 0.156 | 0.145 | 0.171 | 0.261 | 0.318 | – | 0.416 | 0.267 | 0.197 | 0.164 | 0.143 | 0.194 | 0.176
NCI-H838 | 1.12 | 1.25 | 1.28 | 1.2 | 0.314 | 0.284 | 0.262 | 0.333 | 0.258 | 0.264 | 0.341 | 0.275 | 0.233 | 0.259 | 0.223 | 0.283 | 0.245 | 0.235
NCI-H1355 | 0.81 | 0.939 | 0.995 | 0.983 | 0.6 | 0.676 | 0.721 | 0.787 | 0.581 | 0.536 | 0.574 | 0.501 | 0.55 | 0.964 | 1.05 | 0.761 | 1.03 | 0.976
NCI-H1395 | 1.18 | 1.16 | 1.14 | 1.09 | 0.376 | 0.403 | 0.45 | 0.449 | 0.727 | 0.731 | 0.63 | 0.774 | 0.741 | 0.882 | 0.705 | 0.553 | 0.899 | 0.922
NCI-H1437 | 1.14 | 1.09 | 1.14 | 1.12 | 0.377 | 0.385 | 0.367 | 0.531 | 0.405 | 0.38 | 0.409 | 0.372 | 0.389 | 0.31 | 0.307 | 0.325 | 0.296 | 0.283
NCI-H1650 | 1.3 | 1.24 | 1.05 | 1.07 | 0.299 | 0.336 | 0.267 | 0.21 | 0.483 | 0.358 | – | 0.398 | 0.439 | 0.306 | 0.395 | 0.34 | 0.35 | 0.277
NCI-H1651 | 1.03 | 0.98 | 1.01 | 1.06 | 0.385 | 0.391 | 0.37 | 0.438 | 0.624 | 0.752 | 0.628 | 0.725 | 0.579 | 0.654 | 0.527 | 0.57 | 0.599 | 0.601
NCI-H1666 | 0.923 | 1.02 | 0.962 | 0.723 | 0.809 | 0.873 | 0.882 | 0.857 | 0.512 | 0.563 | 0.632 | 0.563 | 0.695 | 0.895 | 0.909 | 0.919 | 0.796 | 0.819
NCI-H1734 | 0.941 | 0.83 | 0.949 | 0.74 | 0.512 | 0.499 | 0.538 | 0.477 | 0.265 | 0.249 | 0.277 | 0.246 | 0.258 | 0.397 | 0.417 | 0.431 | 0.417 | 0.412
NCI-H1755 | 1.04 | 0.988 | 1.14 | 1.07 | 0.484 | 0.46 | 0.499 | 0.475 | 0.637 | 0.564 | 0.464 | 0.573 | 0.54 | 0.391 | 0.447 | 0.387 | 0.489 | 0.348
NCI-H1793 | 0.43 | 0.379 | 0.407 | 0.76 | 0.419 | 0.376 | 0.381 | 0.461 | 0.345 | – | 0.356 | 0.33 | 0.386 | 0.77 | – | 0.831 | 0.801 | 0.767
NCI-H1915 | 0.719 | 0.793 | 0.795 | 0.847 | 0.316 | 0.35 | 0.3 | 0.341 | 0.443 | 0.401 | 0.434 | 0.388 | 0.426 | 0.444 | 0.473 | 0.449 | 0.467 | 0.497
NCI-H1944 | 0.988 | 1.1 | 1.08 | 1.14 | 0.193 | 0.247 | 0.196 | 0.158 | 0.253 | 0.261 | 0.251 | 0.239 | 0.246 | 0.601 | 0.593 | 0.552 | 0.695 | 0.595
